Experimental data: patent US20250312462A1, “PAK1 DEGRADERS AND METHODS OF USE THEREOF” (INSTITUTE FOR CANCER RESEARCH D/B/A THE RESEARCH INSTITUTE …, priority 2022, published 2025)

Key:
PAK1 = PAK1 (Homo sapiens, UniProt Q13153); assay: Z'-LYTE FRET kinase inhibition assay; format: biochemical; parameters: human recombinant PAK1 (kinase domain); purchased Invitrogen PV2830
Protocol: The activity/inhibition of human recombinant PAK1 (kinase domain) or PAK2 (full length) was determined by measuring the phosphorylation of a FRET peptide substrate (Ser/Thr19) labeled with Coumarin and Fluorescein using Z′-LYTE™ assay (Invitrogen). The 10 μL assay mixtures contained 50 mM HEPES (pH 7.5), 0.01% Brij-35, 10 mM MgCl2, 1 mM EGTA, 2 μM FRET peptide substrate, and PAK enzyme (20 pM PAK1; 50 pM PAK2). Incubations were carried out at 22° C. in black polypropylene 384-well plates (Corning Costar). […] Following the 60-minute incubation, the assay mixtures were quenched by the addition of 5 μL of Z′-LYTE™ development reagent, and 1 hour later the emissions of Coumarin (445 nm) and Fluorescein (520 nm) were determined after excitation at 400 nm using an Envision plate reader (Perkin Elmer).

BMPR1B = BMPR1B (Homo sapiens, UniProt O00238); assay: KINOMEscan; details: read-out: Percent Control
Protocol: (§1) The kinase engagement assay (KINOMEscan®) was performed by DiscoverX assessing binding abilities toward a set of kinases.

ALK = ALK (Homo sapiens, UniProt Q9UM73); assay: KINOMEscan; details: read-out: Percent Control
Protocol: as §1

KIT-autoinhibited = KIT-autoinhibited (Homo sapiens, UniProt P10721); assay: KINOMEscan; details: read-out: Percent Control
Protocol: as §1

EGFR = EGFR (Homo sapiens, UniProt P00533); assay: KINOMEscan; details: read-out: Percent Control
Protocol: as §1

ERN1 = ERN1 (Homo sapiens, UniProt O75460); assay: KINOMEscan; details: read-out: Percent Control
Protocol: as §1

FLT3(ITD, F691L) = assay: KINOMEscan; details: 10 μM
Protocol: as §1

[1] = target: RSK1(Kin.Dom.1-N-terminal) (Homo sapiens, UniProt Q15418); assay: KINOMEscan; details: read-out: Percent Control
Protocol: as §1

CLK4 = CLK4 (Homo sapiens, UniProt Q9HAZ1); assay: KINOMEscan; details: read-out: Percent Control
Protocol: as §1

AAK1 = AAK1 (Homo sapiens, UniProt Q2M2I8); assay: KINOMEscan; details: read-out: Percent Control
Protocol: as §1

GRK7 = GRK7 (Homo sapiens, UniProt Q8WTQ7); assay: KINOMEscan; details: read-out: Percent Control
Protocol: as §1

ZAP70 = ZAP70 (Homo sapiens, UniProt P43403); assay: KINOMEscan; details: read-out: Percent Control
Protocol: as §1

MYLK = MYLK (Homo sapiens, UniProt Q15746); assay: KINOMEscan; details: read-out: Percent Control
Protocol: as §1

MET(M1250T) = MET(M1250T) (Homo sapiens, UniProt P08581, M1250T); assay: KINOMEscan; details: read-out: Percent Control
Protocol: as §1

DRAK2 = DRAK2 (Homo sapiens, UniProt O94768); assay: KINOMEscan; details: read-out: Percent Control
Protocol: as §1

EPHB4 = EPHB4 (Homo sapiens, UniProt P54760); assay: KINOMEscan; details: read-out: Percent Control
Protocol: as §1

FLT3 = FLT3 (Homo sapiens, UniProt P36888); assay: KINOMEscan; details: read-out: Percent Control
Protocol: as §1

TIE2 = TIE2 (Homo sapiens, UniProt Q02763); assay: KINOMEscan; details: read-out: Percent Control
Protocol: as §1

PIK3CA(C420R) = PIK3CA(C420R) (Homo sapiens, UniProt P42336, C420R); assay: KINOMEscan; details: read-out: Percent Control
Protocol: as §1

PRKD3 = PRKD3 (Homo sapiens, UniProt O94806); assay: KINOMEscan; details: read-out: Percent Control
Protocol: as §1

CDK9 = CDK9 (Homo sapiens, UniProt P50750); assay: KINOMEscan; details: read-out: Percent Control
Protocol: as §1

TRKC = TRKC (Homo sapiens, UniProt Q16288); assay: KINOMEscan; details: read-out: Percent Control
Protocol: as §1

PIK3CA(Q546K) = PIK3CA(Q546K) (Homo sapiens, UniProt P42336, Q546K); assay: KINOMEscan; details: read-out: Percent Control
Protocol: as §1

PRKX = PRKX (Homo sapiens, UniProt P51817); assay: KINOMEscan; details: read-out: Percent Control
Protocol: as §1

VEGFR2 = VEGFR2 (Homo sapiens, UniProt P35968); assay: KINOMEscan; details: read-out: Percent Control
Protocol: as §1

TNK1 = TNK1 (Homo sapiens, UniProt Q13470); assay: KINOMEscan; details: read-out: Percent Control
Protocol: as §1

NIK = NIK (Homo sapiens, UniProt Q99558); assay: KINOMEscan; details: read-out: Percent Control
Protocol: as §1

GRK4 = GRK4 (Homo sapiens, UniProt P32298); assay: KINOMEscan; details: read-out: Percent Control
Protocol: as §1

SRC = SRC (Homo sapiens, UniProt P12931); assay: KINOMEscan; details: read-out: Percent Control
Protocol: as §1

LRRK2(G2019S) = LRRK2(G2019S) (Homo sapiens, UniProt Q5S007, G2019S); assay: KINOMEscan; details: read-out: Percent Control
Protocol: as §1

ANKK1 = ANKK1 (Homo sapiens, UniProt Q8NFD2); assay: KINOMEscan; details: read-out: Percent Control
Protocol: as §1

RIOK3 = RIOK3 (Homo sapiens, UniProt O14730); assay: KINOMEscan; details: read-out: Percent Control
Protocol: as §1

DDR1 = DDR1 (Homo sapiens, UniProt Q08345); assay: KINOMEscan; details: read-out: Percent Control
Protocol: as §1

Sequence of PAK1 (Q13153 270-521 limits assumed): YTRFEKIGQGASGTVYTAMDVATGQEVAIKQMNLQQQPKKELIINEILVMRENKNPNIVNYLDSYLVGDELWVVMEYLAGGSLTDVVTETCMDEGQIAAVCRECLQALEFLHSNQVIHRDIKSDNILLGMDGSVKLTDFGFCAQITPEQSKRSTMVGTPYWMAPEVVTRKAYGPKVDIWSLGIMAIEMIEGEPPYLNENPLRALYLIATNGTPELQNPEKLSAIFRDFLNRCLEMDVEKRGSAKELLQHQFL
Sequence of EGFR (P00533 25-1210): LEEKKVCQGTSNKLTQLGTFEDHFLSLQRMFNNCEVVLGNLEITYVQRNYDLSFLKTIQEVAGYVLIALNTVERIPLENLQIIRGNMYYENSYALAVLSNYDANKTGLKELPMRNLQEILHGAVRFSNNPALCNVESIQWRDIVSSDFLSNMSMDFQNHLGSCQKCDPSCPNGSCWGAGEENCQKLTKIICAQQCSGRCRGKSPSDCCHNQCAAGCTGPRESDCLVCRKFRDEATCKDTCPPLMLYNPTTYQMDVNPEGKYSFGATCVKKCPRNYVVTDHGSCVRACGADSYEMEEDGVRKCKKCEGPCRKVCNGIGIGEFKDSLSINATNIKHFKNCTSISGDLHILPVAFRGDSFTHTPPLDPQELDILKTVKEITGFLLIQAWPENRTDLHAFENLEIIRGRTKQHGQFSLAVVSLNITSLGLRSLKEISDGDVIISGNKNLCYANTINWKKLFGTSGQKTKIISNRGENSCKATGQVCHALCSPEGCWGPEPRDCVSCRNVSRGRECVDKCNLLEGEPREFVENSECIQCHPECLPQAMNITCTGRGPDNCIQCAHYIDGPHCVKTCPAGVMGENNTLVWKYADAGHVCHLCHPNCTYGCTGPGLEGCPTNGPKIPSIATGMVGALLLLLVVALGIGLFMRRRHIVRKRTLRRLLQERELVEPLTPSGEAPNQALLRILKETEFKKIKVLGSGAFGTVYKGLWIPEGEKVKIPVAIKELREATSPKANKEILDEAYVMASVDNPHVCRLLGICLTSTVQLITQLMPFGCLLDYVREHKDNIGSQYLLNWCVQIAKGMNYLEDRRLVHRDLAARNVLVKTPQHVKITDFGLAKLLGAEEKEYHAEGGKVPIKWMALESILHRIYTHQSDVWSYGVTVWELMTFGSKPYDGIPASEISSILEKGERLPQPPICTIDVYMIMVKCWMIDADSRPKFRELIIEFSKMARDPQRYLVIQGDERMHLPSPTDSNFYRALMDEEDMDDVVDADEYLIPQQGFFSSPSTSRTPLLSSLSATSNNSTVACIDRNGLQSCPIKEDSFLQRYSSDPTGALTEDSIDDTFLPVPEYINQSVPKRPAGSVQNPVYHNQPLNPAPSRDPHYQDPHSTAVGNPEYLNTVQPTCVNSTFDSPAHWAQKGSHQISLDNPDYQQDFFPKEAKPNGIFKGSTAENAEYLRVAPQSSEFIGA
Sequence of PIK3CA(Q546K) (P42336 whole entry Q546K): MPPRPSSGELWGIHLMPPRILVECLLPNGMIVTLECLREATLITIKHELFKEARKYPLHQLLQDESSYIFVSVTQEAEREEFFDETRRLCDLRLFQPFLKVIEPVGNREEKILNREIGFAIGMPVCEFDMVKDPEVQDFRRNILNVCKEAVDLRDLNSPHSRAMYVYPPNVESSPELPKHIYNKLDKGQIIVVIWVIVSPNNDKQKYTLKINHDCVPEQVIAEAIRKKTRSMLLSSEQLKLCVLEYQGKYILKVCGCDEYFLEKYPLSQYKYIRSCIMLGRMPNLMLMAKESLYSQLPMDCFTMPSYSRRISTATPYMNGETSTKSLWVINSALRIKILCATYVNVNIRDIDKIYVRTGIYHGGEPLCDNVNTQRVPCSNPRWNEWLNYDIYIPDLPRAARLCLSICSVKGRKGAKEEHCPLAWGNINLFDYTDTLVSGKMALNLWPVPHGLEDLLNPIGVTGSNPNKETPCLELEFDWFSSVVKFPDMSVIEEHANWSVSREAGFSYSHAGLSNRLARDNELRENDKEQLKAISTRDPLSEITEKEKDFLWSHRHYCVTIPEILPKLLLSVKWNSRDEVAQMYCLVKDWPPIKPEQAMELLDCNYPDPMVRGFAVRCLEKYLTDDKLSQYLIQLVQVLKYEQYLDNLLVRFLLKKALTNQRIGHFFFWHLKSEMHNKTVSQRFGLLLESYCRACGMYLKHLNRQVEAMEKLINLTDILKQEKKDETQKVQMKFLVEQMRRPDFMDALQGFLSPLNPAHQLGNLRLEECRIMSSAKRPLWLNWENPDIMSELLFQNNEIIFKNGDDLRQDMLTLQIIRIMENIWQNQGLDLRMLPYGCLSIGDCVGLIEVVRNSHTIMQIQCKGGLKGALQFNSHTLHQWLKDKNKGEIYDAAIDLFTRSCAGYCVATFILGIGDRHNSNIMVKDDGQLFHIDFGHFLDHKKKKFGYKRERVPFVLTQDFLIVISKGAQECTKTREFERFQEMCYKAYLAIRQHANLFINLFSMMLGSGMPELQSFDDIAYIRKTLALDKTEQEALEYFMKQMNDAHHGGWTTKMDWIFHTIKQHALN
Sequence of PRKD3 (O94806 whole entry): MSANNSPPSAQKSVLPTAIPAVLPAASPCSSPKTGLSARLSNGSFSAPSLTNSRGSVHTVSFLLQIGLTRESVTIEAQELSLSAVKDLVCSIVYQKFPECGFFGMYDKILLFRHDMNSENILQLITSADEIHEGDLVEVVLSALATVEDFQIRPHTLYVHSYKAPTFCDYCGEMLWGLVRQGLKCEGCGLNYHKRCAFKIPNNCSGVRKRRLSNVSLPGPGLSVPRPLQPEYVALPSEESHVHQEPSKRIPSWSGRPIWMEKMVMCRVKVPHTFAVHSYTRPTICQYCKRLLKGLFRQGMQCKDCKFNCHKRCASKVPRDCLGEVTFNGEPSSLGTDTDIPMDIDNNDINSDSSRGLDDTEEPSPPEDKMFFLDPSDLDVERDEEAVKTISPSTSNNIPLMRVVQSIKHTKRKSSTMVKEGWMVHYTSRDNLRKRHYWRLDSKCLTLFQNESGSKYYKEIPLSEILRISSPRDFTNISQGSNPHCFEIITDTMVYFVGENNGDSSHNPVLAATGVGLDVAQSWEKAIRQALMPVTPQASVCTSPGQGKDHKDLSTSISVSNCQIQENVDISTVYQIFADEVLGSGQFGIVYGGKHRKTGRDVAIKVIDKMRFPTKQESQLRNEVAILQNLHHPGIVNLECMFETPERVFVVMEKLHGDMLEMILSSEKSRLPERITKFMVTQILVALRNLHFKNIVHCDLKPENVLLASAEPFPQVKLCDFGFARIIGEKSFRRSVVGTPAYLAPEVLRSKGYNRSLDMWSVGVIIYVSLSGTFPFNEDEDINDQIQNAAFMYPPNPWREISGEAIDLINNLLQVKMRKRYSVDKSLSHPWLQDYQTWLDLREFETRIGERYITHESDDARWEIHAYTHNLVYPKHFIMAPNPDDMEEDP
Sequence of PRKX (P51817 whole entry): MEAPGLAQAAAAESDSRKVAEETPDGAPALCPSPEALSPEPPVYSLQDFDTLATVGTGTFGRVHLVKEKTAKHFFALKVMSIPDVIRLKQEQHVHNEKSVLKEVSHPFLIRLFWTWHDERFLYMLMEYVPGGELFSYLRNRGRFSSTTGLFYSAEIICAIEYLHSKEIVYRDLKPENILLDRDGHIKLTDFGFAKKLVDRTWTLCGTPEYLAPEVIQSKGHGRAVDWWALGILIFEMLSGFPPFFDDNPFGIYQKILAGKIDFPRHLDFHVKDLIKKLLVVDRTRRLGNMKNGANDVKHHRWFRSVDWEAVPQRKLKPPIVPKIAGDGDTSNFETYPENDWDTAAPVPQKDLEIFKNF
Sequence of KIT-autoinhibited (P10721 544-976 limits assumed): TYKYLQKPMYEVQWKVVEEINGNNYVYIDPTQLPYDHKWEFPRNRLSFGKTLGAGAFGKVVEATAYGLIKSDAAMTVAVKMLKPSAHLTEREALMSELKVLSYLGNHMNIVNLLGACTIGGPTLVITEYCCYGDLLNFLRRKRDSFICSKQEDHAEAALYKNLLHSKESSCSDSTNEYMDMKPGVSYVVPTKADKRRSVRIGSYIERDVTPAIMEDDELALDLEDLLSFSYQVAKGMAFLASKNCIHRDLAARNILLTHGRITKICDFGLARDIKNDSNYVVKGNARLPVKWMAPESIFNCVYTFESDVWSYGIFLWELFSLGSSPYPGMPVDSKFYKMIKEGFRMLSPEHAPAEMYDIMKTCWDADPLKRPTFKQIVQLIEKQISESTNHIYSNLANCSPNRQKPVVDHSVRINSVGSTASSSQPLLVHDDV
Sequence of PIK3CA(C420R) (P42336 whole entry C420R): as the sequence (P42336 whole entry Q546K) above, with C420R, K546Q counted along it
Sequence of ZAP70 (P43403 whole entry): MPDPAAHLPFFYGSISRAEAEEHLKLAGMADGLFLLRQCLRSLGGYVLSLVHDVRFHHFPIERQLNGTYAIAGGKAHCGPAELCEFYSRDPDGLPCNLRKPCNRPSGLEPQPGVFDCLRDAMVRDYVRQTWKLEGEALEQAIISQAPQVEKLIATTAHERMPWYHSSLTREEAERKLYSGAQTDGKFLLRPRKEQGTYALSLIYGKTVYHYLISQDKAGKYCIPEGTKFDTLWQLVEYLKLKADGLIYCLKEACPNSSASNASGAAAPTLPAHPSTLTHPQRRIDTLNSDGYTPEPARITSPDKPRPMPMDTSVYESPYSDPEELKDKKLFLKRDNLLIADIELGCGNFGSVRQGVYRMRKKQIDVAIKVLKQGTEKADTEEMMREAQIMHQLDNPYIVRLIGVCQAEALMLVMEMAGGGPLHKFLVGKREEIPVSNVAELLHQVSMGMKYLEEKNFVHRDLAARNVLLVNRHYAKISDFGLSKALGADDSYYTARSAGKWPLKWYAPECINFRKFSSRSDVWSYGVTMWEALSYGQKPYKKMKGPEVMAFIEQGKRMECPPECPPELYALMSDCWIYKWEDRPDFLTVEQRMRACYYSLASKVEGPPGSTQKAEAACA

SMILES: O=C1CCC(N2C(=O)c3cccc(NCCCCCCCCNC(=O)N4CC[C@H](NC5=Nc6cc(F)ccc6N(CC(F)F)c6ccc(Cl)cc65)C4)c3C2=O)C(=O)N1 (stereo partly drawn) [BJG-05-039, (3S)-3-((2-Chloro-5-(2,2-difluoroethyl)-8-fluoro-5H-dibenzo[b,e][1,4]diazepin-11-yl)amino)-N-(8-((2-(2,6-dioxopiperidin-3-yl)-1,3-dioxoisoindolin-4-yl)amino)octyl)pyrrolidine-1-carboxamide]
- IC50 (PAK1): 233 nM
- Increase of selectivity over PAK2 relative to NVS-PAK-1 (PAK1; from Table 1): more than ten-fold
- PAK1 inhibitory activity and selectivity of conjugate (PAK1; vs PAK2 and PAK4): retained PAK1 inhibitory activity and selectivity
- remaining binding at 10 µM (BMPR1B): 85%
- remaining binding at 10 µM (ALK): 97%
- remaining binding at 10 µM (KIT-autoinhibited): 100%
- remaining binding at 10 µM (EGFR): 74%
- remaining binding at 10 µM (ERN1): 93%
- Percent Control (FLT3(ITD, F691L)): 94
- remaining binding at 10 µM [1]: 87%
- remaining binding at 10 µM (CLK4): 100%
- remaining binding at 10 µM (AAK1): 48%
- remaining binding at 10 µM (GRK7): 100%
- remaining binding at 10 µM (ZAP70): 100%
- remaining binding at 10 µM (MYLK): 100%
- remaining binding at 10 µM (MET(M1250T)): 61%
- remaining binding at 10 µM (DRAK2): 58%
- remaining binding at 10 µM (EPHB4): 91%
- remaining binding at 10 µM (FLT3): 53%
- remaining binding at 10 µM (TIE2): 98%
- remaining binding at 10 µM (PIK3CA(C420R)): 100%
- remaining binding at 10 µM (PRKD3): 37%
- remaining binding at 10 µM (CDK9): 53%
- remaining binding at 10 µM (TRKC): 100%
- remaining binding at 10 µM (PIK3CA(Q546K)): 100%
- remaining binding at 10 µM (PRKX): 48%
- remaining binding at 10 µM (VEGFR2): 100%
- remaining binding at 10 µM (TNK1): 83%
- remaining binding at 10 µM (NIK): 76%
- remaining binding at 10 µM (GRK4): 71%
- remaining binding at 10 µM (SRC): 88%
- remaining binding at 10 µM (LRRK2(G2019S)): 96%
- remaining binding at 10 µM (ANKK1): 87%
- remaining binding at 10 µM (RIOK3): 84%
- remaining binding at 10 µM (DDR1): 52%
